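A five-concentration, 48-hour dose response in 96-well plates underlies each endpoint, interpolated linearly between surrounding concentrations. TGI is the concentration that stops growth completely.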
Tests used:
Experiment in all cases: NCI-60 cell line screen, 48 h
A498 renal = test system: A498 renal
SNB-75 CNS = test system: SNB-75 CNS
BT-549 breast = test system: BT-549 breast
DU-145 prostate = test system: DU-145 prostate
NCI/ADR-RES ovarian = test system: NCI/ADR-RES ovarian
K-562 leukemia = test system: K-562 leukemia
SR leukemia = test system: SR leukemia
SF-268 CNS = test system: SF-268 CNS
UACC-257 melanoma = test system: UACC-257 melanoma
SW-620 colon = test system: SW-620 colon
MDA-MB-231 breast = test system: MDA-MB-231 breast
OVCAR-4 ovarian = test system: OVCAR-4 ovarian
IGROV1 ovarian = test system: IGROV1 ovarian
MOLT-4 leukemia = test system: MOLT-4 leukemia
786-0 renal = test system: 786-0 renal
RPMI-8226 leukemia = test system: RPMI-8226 leukemia
HCT-116 colon = test system: HCT-116 colon
PC-3 prostate = test system: PC-3 prostate
ACHN renal = test system: ACHN renal
NCI-H226 lung = test system: NCI-H226 lung
MDA-MB-435 = test system: MDA-MB-435
TK-10 renal = test system: TK-10 renal
HL-60(TB) leukemia = test system: HL-60(TB) leukemia
SK-OV-3 ovarian = test system: SK-OV-3 ovarian
KM12 colon = test system: KM12 colon
COLO 205 colon = test system: COLO 205 colon
A549 NSCLC = test system: A549 NSCLC
UO-31 renal = test system: UO-31 renal
LOX IMVI melanoma = test system: LOX IMVI melanoma
EKVX NSCLC = test system: EKVX NSCLC
OVCAR-8 ovarian = test system: OVCAR-8 ovarian
HS 578T breast = test system: HS 578T breast
SK-MEL-5 melanoma = test system: SK-MEL-5 melanoma
SNB-19 CNS = test system: SNB-19 CNS
NCI-H522 lung = test system: NCI-H522 lung
CAKI-1 renal = test system: CAKI-1 renal
MALME-3M melanoma = test system: MALME-3M melanoma
MDA-N = test system: MDA-N
OVCAR-3 ovarian = test system: OVCAR-3 ovarian
CCRF-CEM leukemia = test system: CCRF-CEM leukemia
SF-539 CNS = test system: SF-539 CNS
NCI-H23 lung = test system: NCI-H23 lung
MCF7 breast = test system: MCF7 breast
SK-MEL-28 melanoma = test system: SK-MEL-28 melanoma
HCT-15 colon = test system: HCT-15 colon
HOP-92 NSCLC = test system: HOP-92 NSCLC
OVCAR-5 ovarian = test system: OVCAR-5 ovarian
UACC-62 melanoma = test system: UACC-62 melanoma
SK-MEL-2 melanoma = test system: SK-MEL-2 melanoma
M14 melanoma = test system: M14 melanoma
U251 CNS = test system: U251 CNS
HT29 colon = test system: HT29 colon
HOP-62 NSCLC = test system: HOP-62 NSCLC
SN12C renal = test system: SN12C renal
SF-295 CNS = test system: SF-295 CNS
NCI-H460 lung = test system: NCI-H460 lung
RXF 393 renal = test system: RXF 393 renal
HCC-2998 colon = test system: HCC-2998 colon

Measured: TGI

CC(=O)/C=c1\[nH]/c(=C\C=C\c2ccccc2)c(=O)n1/C=C1\C(=O)Oc2ccccc2C1=O
not listed: HOP-62 NSCLC | SN12C renal | SF-295 CNS | NCI-H460 lung | RXF 393 renal | HCC-2998 colon
> 100 µM: all other assays above

CCCCCCN1CCc2c(C)c(C#N)c3nc4ccccc4n3c21
93.8 µM: MDA-MB-435
75.6 µM: HS 578T breast
41.5 µM: MCF7 breast
not listed: MOLT-4 leukemia | RPMI-8226 leukemia | KM12 colon | EKVX NSCLC | CAKI-1 renal | CCRF-CEM leukemia
> 100 µM: all other assays above

From PubChem BioAssay (NCI)
